Values quoted from earlier work, collected in patent US20230149829A1, “ORAL COMPOSITIONS OF PLANTS THROUGH A DOUBLE EXTRACTION SYSTEM AND METHODS OF MAKING THE SAME” (Nulixir Inc., priority 2021, published 2023).

Tested on: many strains of fungi
Conditions: not given

Question: For `O=CC=Cc1ccccc1` [Cinnamaldehyde], which “inhibitory activity against fungi” value is on record?
Answer: strong inhibitory activity

Tested on: not given
Conditions: n-octanol and water; categorization assumed at pH=7 unless stated otherwise

Question: Which “log P” value does the source give for schisandroside C here?
Answer: ~1.6

Question: Which “log P” value does the source give for `COc1ccc(C23C=CC(O)CC2N(C)CC3)cc1OC` (stereo not drawn) [mesembrenol] here?
Answer: ~2.4

Question: For `COc1ccc(CCc2cc(OC)cc(=O)o2)cc1` [7,8-dihydroyangonin], which “log P” value is on record?
Answer: ~2.9

Question: Which “log P” value does the source give for herinacine A here?
Answer: ~2.5

Question: With `CC(C)=C[C@H]1C[C@](C)(O)[C@H]2[C@H]3CC[C@@H]4[C@@]5(C)CC[C@H](O[C@@H]6O[C@H](CO)[C@@H](O)[C@H](O[C@@H]7O[C@H](CO)[C@@H](O)[C@H](O)[C@H]7O)[C@H]6O[C@@H]6O[C@@H](CO)[C@H](O)[C@H]6O)C(C)(C)[C@@H]5CC[C@@]4(C)[C@@]34CO[C@@]2(C4)O1` [bacoside A3] as the compound, how does the “log P” value read?
Answer: ~2.1

Question: With bacopaside B as the compound, how does the “log P” value read?
Answer: ~2.8

Question: For (R)-kawain, which “log P” value is on record?
Answer: ~2.7

Question: Which “log P” value does the source give for hericerin here?
Answer: ~6.4

Question: For `CC(C)=C[C@@H]1CO[C@]23C[C@]4(CO2)[C@H](CC[C@@H]2[C@@]5(C)CC[C@H](O[C@@H]6OC[C@H](O)[C@H](O[C@@H]7O[C@H](CO)[C@@H](O)[C@H](O)[C@H]7O)[C@H]6O[C@@H]6O[C@@H](CO)[C@H](O)[C@H]6O)C(C)(C)[C@@H]5CC[C@]24C)[C@H]3[C@@]1(C)O` [bacopasaponin C], which “log P” value is on record?
Answer: ~2

Question: For `COc1cc2c(c(OC)c1OC)-c1c(cc(OC)c(OC)c1OC)C[C@H](C)[C@H](C)C2` [(−)-schisandrin A], which “log P” value is on record?
Answer: ~3.6

Question: Which “log P” value does the source give for `CC(C)=CCC[C@](C)(O[C@@H]1O[C@H](CO)[C@@H](O)[C@H](O)[C@H]1O)[C@H]1CC[C@]2(C)[C@@H]1[C@H](O)C[C@@H]1[C@@]3(C)CC[C@H](O)C(C)(C)[C@@H]3[C@@H](O[C@@H]3O[C@H](CO)[C@@H](O)[C@H](O)[C@H]3O)C[C@]12C` [ginsenoside rg1] here?
Answer: ~0.8

Question: With `COc1cc2c(c(OC)c1OC)-c1c(cc3c(c1OC)OCO3)CC(C)C(C)C2` (single isomer, unassigned; (-)) [(−)-schisandrin B] as the compound, how does the “log P” value read?
Answer: ~4

Question: For tortuosomine, which “log P” value is on record?
Answer: ~3

Question: Which “log P” value does the source give for `COc1cc(/C=C\c2ccc(OC)c(O)c2)oc(=O)c1` [11-hydroxyyangonin] here?
Answer: ~2.2

Question: With `N#C[C@@]1(O[C@@H]2O[C@H](CO)[C@@H](O)[C@H](O)[C@H]2O)C=C[C@@H](O)C1` [tetraphyllin B] as the compound, how does the “log P” value read?
Answer: ~−2.5

Question: With `COC1=CC(=O)O[C@@H](CCc2ccc3c(c2)OCO3)C1` [7,8-dihydromethysticin] as the compound, how does the “log P” value read?
Answer: ~2.2

Question: For `COC1=CC(=O)OC(/C=C/c2ccc(OC)cc2)C1` (stereo not drawn) [5,6-dihydroyangonin], which “log P” value is on record?
Answer: ~2.5

Question: For `COc1cc2c(c(OC)c1OC)-c1c(cc(OC)c(OC)c1OC)C[C@](C)(O)[C@@H](C)C2` [(+)-schisandrin], which “log P” value is on record?
Answer: ~5

Question: Which “log P” value does the source give for `COc1ccc([C@@]23CCC(=O)C[C@@H]2N(C)CC3)cc1OC` [mesembrine] here?
Answer: ~1.5

Question: For `COc1cc([C@H]2Oc3cc(O)c4c(=O)c(O)c(-c5ccc(O)cc5)oc4c3O[C@@H]2CO)ccc1O` [rhodiolin], which “log P” value is on record?
Answer: ~2

Question: Which “log P” value does the source give for `CC(C)=CCC[C@](C)(O[C@@H]1O[C@H](CO[C@@H]2O[C@H](CO)[C@@H](O)[C@H](O)[C@H]2O)[C@@H](O)[C@H](O)[C@H]1O)[C@H]1CC[C@]2(C)[C@@H]1[C@H](O)C[C@@H]1[C@@]3(C)CC[C@H](O[C@@H]4O[C@H](CO)[C@@H](O)[C@H](O)[C@H]4O[C@@H]4O[C@H](CO)[C@@H](O)[C@H](O)[C@H]4O)C(C)(C)[C@@H]3CC[C@]12C` [ginsenoside rb1] here?
Answer: ~−1

Question: For methylliberine, which “log P” value is on record?
Answer: ~−0.083

Question: For `COc1ccc([C@@]23C=CC(=O)C[C@@H]2N(C)CC3)cc1OC` [mesembrenone], which “log P” value is on record?
Answer: ~1.3

Question: Which “log P” value does the source give for `CC1=C(CO)C(=O)O[C@@H]([C@@H](C)[C@H]2CC[C@H]3[C@@H]4C[C@H](Cl)[C@]5(O)[C@@H](O)C=CC(=O)[C@]5(C)[C@H]4CC[C@]23C)C1` [6a-chloro-5b-hydroxywithaferin A] here?
Answer: ~3.2

Question: For `CC(=O)OC1C=CC(=O)N(C(=O)CCc2ccccc2)C1` (stereo not drawn) [pipermethystine], which “log P” value is on record?
Answer: ~1.8

Question: For `CC(C)=C[C@H]1C[C@](C)(O)[C@@H]2[C@H]3CC[C@@H]4[C@@]5(C)CC[C@H](O[C@@H]6OC[C@H](O)[C@H](O[C@@H]7O[C@H](CO)[C@@H](O)[C@H](O)[C@H]7O)[C@H]6O[C@@H]6O[C@@H](CO)[C@H](O)[C@H]6O)C(C)(C)[C@@H]5CC[C@@]4(C)[C@@]34CO[C@@]2(C4)O1` [bacopaside X], which “log P” value is on record?
Answer: ~2.2
